In patent US20050276855A1, “Composition and method using local application of lipophilic lathyrogens sustained release formulations” (priority 2004, published 2005):
“Also recorded” adds a separate entry of the source.

Assays:
[1] = tested on: Schiff base crosslinks of the collagen; assay: Swelling of skin samples in various solutions (collagen crosslink cleavage); parameters: species or system nude mice; settings: for Cleavage of crosslinks once reduced: crosslinks reduced with sodium borohydrate; for Cleavage of non reduced Schiff base crosslinks of collagen: non reduced skin discs
Description: This example documents one of the effects of DPA on the integrity of collagen structure. […] Once the crosslink is reduced (with sodium borohydrate) a stable covalent crosslinks is formed, resistant to any chemical means to break it. The Example also documents that only substances having —SH and —NH2 groups free are effective. Therefore N acetyl cystein is not effective due to the blocking its —NH2 group.
Method: Skin of 4 months old nude mice was dissected, spread on a board and with a 0.5 cm diameter punch several discs were obtained. These were kept in a moist chamber to prevent drying. The discs were weighted and immersed in the following solutions for 1 hour incubation: • 1. Phosphate buffered saline (0.1 M, pH 7.3)-control; • 2. PBS with 10 mg sodium borohydrate in 10 ml; • 3. Some discs from group 1 and 2 were further incubated for 1 hour PBS containing 100 mg cystein, or D-penicillamine or N-acetyl cystein; • 4. After 1 hour incubation in the above solutions, the skin samples were placed into 0.45% acetic acid (pH 3.5) for another hour.
After each incubation time the skins samples were blotted on a filter paper and weighted on a analytical balance with the sensitivity to 0.1 mg.
Swelling in Table 1 is given as mg weight/0.5 cm disc of skin. The data are shown as Mean +/− standard deviation (“SD”).
In this Example the swelling capacity was used as an indicator of the structural stability, namely number of crosslinks in the collagen molecules. More crosslinked collagen swells less than when the bonds are cleaved, resuming the structure of “young” collagen.

[2] = tested on: incision skin wound in rats; assay: Breaking strength of incision skin wound in rats after a single local injection; type: in vivo; settings: for Effect on breaking strength of the healing wound: Example III, in polyethylene glycol 600; for Breaking strength of skin wound, X: Example IV, in thermosensitive polymer (TSP), Sprague-Dawley female rats; for Breaking strength of skin wound, X / Effect on breaking strength versus non-treated controls: 12 days; for Breaking strength / Change in % of control / Effect on breaking strength versus non-treated controls: Example II; for Breaking strength: 12 days after wounding, single injection underneath wound line, DPA 5 mg/0.25 ml, hexyl ester 7.5 mg/0.25 ml, Mean +/− SD; for Change in % of control: breaking strength 12 days after wounding; for Effect on breaking strength versus non-treated controls: in saline
Procedure: Young adult rats have the hair clipped in the dorsum midline to make a rectangle having the dimensions of about 4 cm by about 9 cm. A full thickness skin incision in the midline of the dorsum of the rat is made about 8 cm long. The wound is closed with 9 to 10 interrupted sutures.
Various treatments are injected in between the sutures, underneath the closed wounds with a 8 cm long gastric needle, inserted at the distal site of the incision wound. After 12 days the animals are terminated, the skin wound is dissected with 2 cm intact skin at both sides. A specially designed multiple razor blade cutter with blades 0.5 cm apart is placed onto the skin, stretched loosely onto a cork lined board and hammered to obtain several (10 to 12) equal width skin strips, having the wound in the middle. Individual skin strips are attached to grips of a tensiometer and breaking strength is determined.
In this Example II, Applicants utilized the above-recited test method to evaluate local administration of unmodified lathyrogens and/or chemically modified lathyrogens, administered in a polymeric carrier.
In certain embodiments, the polymeric carrier comprised a mixture of polylactic and polyglycolic acid of defined molecular weights and proportion, dissolved in N-methylpyrolidone. This polymer was obtained from Atrix Company (CO) as Atrigel 30 which was supposed to be degraded in the tissues within 30 days. […] The rate of its degradation—hydrolysis, determines the rate of the release of the lathyrogen dispersed therein.
The tested lathyrogens, Compound I or derivative thereof, namely D-penicillamine-hexyl ester HCl, i.e. Compound III, wherein R1 is hexyl, was used at the dose of 5 mg/0.25 ml of polymeric carrier (for DPA), or 7.5 mg of Compound III/0.25 ml of polymeric carrier. The formulation was injected after closing the skin wound between the sutures, underneath the wound line. Saline solutions of BAPN and DPA were also administered at the same dose and volume.
Four rats were used in each group. The data recited in Table II are presented as Mean +/− Standard Deviation, based on 20 to 28 determinations in every group. The testing of the breaking strength of the skin wound strips was done 12 days after inflecting the wound. […]

intraoccular pressure = settings: topical, cited from earlier work
sclera puncture wound = settings: locally injected; cited from earlier work
[3] = tested on: function of filter surgery; settings: systemic administration; cited from earlier work
esophageal stricture [4] = settings: young adult rabbits; cited from earlier work
lacerated tendons = settings: systemic administration; cited from earlier work
esophageal stricture [5] = settings: given systemically, without bougienage; cited from earlier work
peritendinous adhesions = settings: 1-2-g/day per os, cited from earlier work
[6] = tested on: scar contracture of intracardiac prosthetic patches; settings: systemic; cited from earlier work
[7] = 0.5 cm skin discs, 1 hour PBS, 1 hour PBS containing 100 mg substance, then 1 hour 0.45% acetic acid (pH 3.5)

## [BH4-].[Na+] [SBH + control, sodium borohydrate]
[1]; discs first incubated 1 hour in PBS with 10 mg sodium borohydrate in 10 ml (crosslinks reduced), then substance, then 0.45% acetic acid (pH 3.5)
  Swelling of skin samples, Mean: 27.5 mg weight/0.5 cm disc of skin

## CCCCCCNCCC#N [BAPN - lipophilic, hexyl-beta-aminopropionitrile]
[2]
  Effect on breaking strength of the healing wound: effectiveness
  Breaking strength of skin wound, X: 226

## N#CCCN.N#CCCN.O=C(O)/C=C/C(=O)O [BAPN-F]
Intraoccular pressure; after filtration surgery
  Time postoperative pressure was maintained: 26.4+−11 weeks
Intraoccular pressure; difficult cases of glaucoma
  Overall success rate: 74%
Intraoccular pressure; preoperative pressure 40 mm Hg
  Postoperative intraoccular pressure: 19 mm Hg
Sclera puncture wound
  Collagen deposition in adjacent muscle: decreased
  Wound contraction after puncturing the sclera: inhibited wound contraction

## N[C@@H](CS)C(=O)O [CYSH, cystein]
[1]; [7]
  Swelling of skin samples, Mean: 84.0 mg weight/0.5 cm disc of skin
[1]
  Cleavage of crosslinks once reduced: no effective
  Cleavage of non reduced Schiff base crosslinks of collagen: effectively cleaving

## CCCCCCOC(=O)[C@H](N)C(C)(C)S.Cl [DPA - lipophilic, D-penicillamine-hexyl ester HCl]
[2]
  Breaking strength of skin wound, X: 321

## CC(C)(S)C(N)C(=O)O (stereo in doubt) [DPA, D-Penicillamine]
[2]
  Breaking strength: 695 +/− 38 g/0.5 cm
  Change in % of control: −2%
  Effect on breaking strength versus non-treated controls: no differences in the breaking strength
[3]
  Effect on the function of filter surgery: not effective
Esophageal stricture [4]
  Severity of esophageal stricture: less severe stricture
[1]; [7]
  Swelling of skin samples, Mean: 84.0 mg weight/0.5 cm disc of skin
[1]
  Cleavage of crosslinks once reduced: no effective
  Cleavage of non reduced Schiff base crosslinks of collagen: cleaves the non reduced covalent Schiff base crosslinks; also recorded: effectively cleaving
Sclera puncture wound
  Collagen deposition in adjacent muscle: decreased
  Wound contraction after puncturing the sclera: inhibited wound contraction

## CC(=O)N[C@@H](CS)C(=O)O [N-acetylCYSH, N-acetyl cystein]
[1]; [7]
  Swelling of skin samples, Mean: 32.2 mg weight/0.5 cm disc of skin
[1]
  Cleavage of non reduced Schiff base crosslinks of collagen: not effective

## DPA-hexanal acetone adduct
[2]
  Effect on breaking strength of the healing wound: no effect

## N#CCCN [BAPN, Beta-aminopropionitrile]
[2]
  Breaking strength: 735 +/− 40 g/0.5 cm
  Change in % of control: +14%
  Effect on breaking strength versus non-treated controls: no differences in the breaking strength
Lacerated tendons
  Gliding function of lacerated tendons: significant improvement in the gliding function
Esophageal stricture [5]
  Stricture of the esophageal lumen: preventing the stricture of the lumen
Peritendinous adhesions
  Effect in patients after tenolysis: beneficial effect
Peritendinous adhesions; study discontinued
  Side toxic effects: several side toxic effects
[6]
  Scar contracture: inhibition of scar contracture

## COc1cc2c(c(OC)c1OC)-c1ccc(OC)c(=O)cc1[C@@H](NC(C)=O)CC2 [colchicine]
Esophageal stricture [4]
  Severity of esophageal stricture: severe stricture
  Wound healing: delayed wound healing
